Test results taken from patent US20210244700A1, “COMPOSITIONS AND METHODS FOR PREVENTING AND/OR REDUCING ISCHEMIA AFTER SURGICAL INCISIONS” (Duke University, priority 2018, published 2021).
“Also recorded” adds a separate entry of the source.

Legend:
CD31+ vessels = test: Neovascularization: CD31 immunohistochemistry and hematoxylin and eosin histology of skin flap; type: in vivo, rat
Procedure: (§1) Tissues from the proximal and distal parts of the flaps were collected on postoperative day 7 and were fixed in 10% paraformaldehyde and embedded in paraffin, with representative sections depicted in FIG. 1. For histologic evaluation and CD31 immunohistochemical staining, sections taken 6 cm from the proximal flap were deparaffinized in xylene and rehydrated in a series of ethanol washes. For detection of CD31+ cells, sections were incubated with anti-mouse CD31 antibody (BD Pharmingen, San Jose, Calif.) at a dilution of 1:200 at 4° C. overnight. For analysis of angiogenesis, the CD31+ vessels in five fields were counted by light microscopy (20×) for each group. A TdT In Situ Cell Death Detection Kit (R&D Systems, Minneapolis, Minn.) was used to compare apoptotic protein expression in sections taken 4 cm from the proximal flap. The ratio of terminal deoxynucleotidyl transferase-mediated dUDP end-labeling-positive cells was calculated according to the manufacturer's protocol. Terminal deoxynucleotidyl transferase-mediated dUDP end-labeling-positive cells were also counted by light microscopy (20×) in 10 fields.

ischemic skin flap [1] = test: Skin flap necrosis, rat ischemic dorsal pedicle skin flap (McFarlane) model; type: in vivo; details: for mean percentage of skin flap necrosis: postoperative day 3; for mean percentage of skin flap necrosis / flap necrosis: intraperitoneal + topical; for mean percentage of skin flap necrosis / postsurgical flap necrosis percentage: control 41.3±3.8 percent; for flap necrosis: postoperative day 7; for flap necrosis / percentage of flap necrosis: control 50.9±3.9 percent; for postsurgical flap necrosis percentage: postsurgical day 3; for percentage of flap necrosis: postsurgical day 7
Procedure: (§2) After institutional animal care and use committee approval, hairless male rats (8 weeks old; 250 g) were obtained from Charles River Laboratories (Wilmington, Mass.). Six experimental groups of rats (n=24) and three control groups (n=12) underwent skin flap surgery by surgeons blinded to the experimental treatment arm. First, to assess both systemic and topical administration together, four experimental groups (n=16) were administered dimethyloxalylglycine (Cayman Chemical, Ann Arbor, Mich.) both intraperitoneally and topically for a total dose of 6 mg/kg/day (n=4), 12 mg/kg/day (n=4), 24 mg/kg/day (n=4), or 48 mg/kg/day (n=4). Next, to assess topical versus intraperitoneal administration, two experimental groups were administered dimethyloxalylglycine at 48 mg/kg/day either topically (n=4) or intraperitoneally (n=4). Intraperitoneal administration consisted of dimethyloxalylglycine suspension in phosphate-buffered saline (pH 7.4) to a maximum dosage of 10 ml/kg. Topical delivery consisted of administration of dimethyloxalylglycine using dimethylsulfoxide as a delivery vehicle at a maximum dosage of 9 ml/kg undiluted solution. Topical application was performed in the outline of the proposed skin flap. To replicate a short therapeutic course before and after flap surgery, the study was designed to include a 14-day treatment period, with dimethyloxalylglycine administered 7 days before and 7 days after flap surgery (FIG. 1). Because prolyl hydroxylase inhibitors target the HIF pathway […], this design was chosen to allow time for downstream neovascularization.
(§3) Throughout the same 14-day treatment course, control groups were administered an equal volume of intraperitoneal phosphate-buffered saline (pH 7.4) and topical dimethylsulfoxide. A dorsal pedicle skin flap based on the McFarlane model measuring 3×6 cm was elevated in the areolar tissue plane deep to the panniculus carnosus layer on each rat on treatment day 7. Consistency in flap design was ensured using a model outline for size and shape and positioning according to bony landmarks. After flap elevation, the flap was sutured in place with 4-0 polypropylene. Surgeons were blinded intraoperatively to treatment arm with a random numbers scheme. Seven days after surgery, the animals were euthanized and histologic analysis performed in postmortem tissue specimens.
(§4) Photographic measurements of necrosis were taken on postoperative days 1, 3, and 7. Flap necrosis was determined grossly by the presence of cyanosis and congestion on postoperative day 1 (FIG. 2) and the presence of scab formation and loss of skin elasticity on subsequent postsurgical days. At 7 days, tissue perfusion was assessed by means of intraperitoneal injection of 1 ml of sodium fluorescein 10% at 60 mg/kg and fluorescent imaging with an in vivo imaging system (IVIS Kinetic; PerkinElmer, Waltham, Mass.) using LIVING IMAGE® software with a 465-nm excitation and green fluorescent protein emission filter. Necrotic area was calculated using ImageJ Software (National Institutes of Health, Bethesda, Md.). Digital photographs and IVIS images were evaluated and analyzed by an investigator blinded to the assigned treatment group.

apoptotic cells = test: Apoptosis by terminal deoxynucleotidyl transferase-mediated dUDP end-labeling staining of skin flap; type: in vivo, rat; details: 20× magnification, 4 cm from the proximal flap; control 15.1±6.2; p=0.045
Procedure: as §1

ischemic skin flap [2] = test: Skin flap tissue perfusion, sodium fluorescein injection and IVIS imaging; type: in vivo, rat; details: postoperative day 7; for percentage of unperfused tissue: intraperitoneal + topical, control 39.9±3.8 percent; for percentage of unperfused tissue / percentage of overall flap perfusion: p<0.001; for percentage of overall flap perfusion: control 31.4±2.3 percent
Procedure: as §2, §3, §4

[3] = Complete blood counts after 14 total days of treatment; type: in vivo, rat
Procedure: (§5) The animals were treated according to institutional animal care and use committee guidelines. Animals were double-housed for the preoperative period, then single-housed in the immediate postoperative period to protect flap integrity. Isoflurane anesthesia was used for all operations and daily intraperitoneal injections. Elizabethan collars were placed on rats to prevent ingestion of the topical solution after application. No dressing was used over the topical application site due to absorption. Animals were observed daily for side effects, including wound infections or dehiscence. Weights were taken on the day of surgery and on postoperative day 7. Blood samples were obtained on postoperative day 7 immediately before the animals were euthanized by means of cardiac puncture to determine hemoglobin, hematocrit, white blood cell count, and platelet count. Animals were euthanized by means of intracardiac potassium chloride on postoperative day 7, and gross necropsies were performed by a veterinarian to assess macroscopic organ changes after 14 total days of treatment.

[4] = Side effect monitoring, weights and gross necropsy; type: in vivo, rat
Procedure: as §5

VEGF = test: Tissue VEGF concentration by enzyme-linked immunosorbent assay; type: in vivo, rat; details: skin flap 6 cm from the proximal flap, postoperative day 7; control 22.0±1.7 pg/ml; p=0.007
Procedure: Tissue samples were harvested on postoperative day 7 and dissected on ice, submerged in liquid nitrogen, then stored at −80° C. Tissue samples from tissue sections taken at the same distance 6 cm from the proximal flap were then homogenized in lysis buffer containing 100 mM Tris hydrochloride (pH 7.4), 150 mmol sodium chloride, 1% Triton X-100, 0.5% sodium deoxycholate, and 1 μg/ml protease inhibitor cocktail (Sigma Aldrich, St. Louis, Mo.). The samples were centrifuged to pellet the debris, and the supernatants were analyzed following the manufacturer's protocol for a rat tissue extract VEGF enzyme-linked immunosorbent assay kit (Sigma-Aldrich).

HIF-1α = HIF-1α immunohistochemistry of skin flap epidermis; type: in vivo, rat; details: 4 cm from the proximal flap, postoperative day 7, control 3.5±0.6, p<0.001
Procedure: For analysis of HIF-1α, sections were taken 4 cm from the proximal flap and incubated with anti-rabbit HIF-1α antibody (Novus Biologicals, Littleton, Colo.) at a dilution of 1:1600. A Discovery Ultra immunohistochemical system (Ventana Medical Systems, Oro Valley, Ariz.) was used for staining with OmniMap anti-Rb horseradish peroxidase and red chromogen was used for detection. HIF-1α-positive nuclei in the epidermis were counted by light microscopy (20×) in five fields. All immunohistochemical measurements were performed by a blinded investigator.

[5] = cited from earlier work

COC(=O)CNC(=O)C(=O)OC [dimethyloxalylglycine]
number of CD31-labeled vessels (CD31+ vessels; per high-power field at 20×, 6 cm from the proximal flap, after 14 total days of treatment, control 8.8±1.2, p=0.004): 18.8±2.2 | neovascularization on hematoxylin and eosin-stained tissue (CD31+ vessels; skin flap after 14 total days of treatment, versus controls): greater neovascularization | cyanosis of flaps (ischemic skin flap [1]; postoperative day 1, treated versus control flaps (FIG. 2: 24 mg/kg/day intraperitoneal and topical)): Decreased cyanosis | mean percentage of skin flap necrosis (ischemic skin flap [1]; total 6 mg/kg/day, p=0.13): 30.2±3.9% | mean percentage of skin flap necrosis (ischemic skin flap [1]; total 12 mg/kg/day, p=0.001): 12.3±4.5% | mean percentage of skin flap necrosis (ischemic skin flap [1]; total 24 mg/kg/day, p=0.008): 20.3±1.8% | mean percentage of skin flap necrosis (ischemic skin flap [1]; total 48 mg/kg/day, p<0.001): 7.7±3.1% | flap necrosis (ischemic skin flap [1]; total 6 mg/kg/day, p=0.004): 26.7±1.3% | flap necrosis (ischemic skin flap [1]; total 12 mg/kg/day, p=0.002): 20.6±7.0% | flap necrosis (ischemic skin flap [1]; total 24 mg/kg/day, p=0.003): 25.0±2.5% | flap necrosis (ischemic skin flap [1]; total 48 mg/kg/day, p<0.001): 11.6±4.4% | postsurgical flap necrosis percentage (ischemic skin flap [1]; intraperitoneal alone 48 mg/kg/day, p=0.002): 14.7±2.6% | postsurgical flap necrosis percentage (ischemic skin flap [1]; topical alone 48 mg/kg/day, p=0.005): 18.9±2.8% | percentage of flap necrosis (ischemic skin flap [1]; intraperitoneal alone 48 mg/kg/day, p<0.001): 16.3±5.2% | percentage of flap necrosis (ischemic skin flap [1]; topical alone 48 mg/kg/day, p=0.003): 25.7±2.3% | increase in flap viability (ischemic skin flap [1]; topical application and intraperitoneal administration): nearly threefold increase | number of apoptotic cells per high-power field (apoptotic cells): 1.7±0.6 | dose dependence of tissue perfusion (ischemic skin flap [2]; 6 to 48 mg/kg/day): higher dimethyloxalylglycine doses leading to increased tissue perfusion | percentage of unperfused tissue (ischemic skin flap [2]; total 6 mg/kg/day): 11.4±1.7% | percentage of unperfused tissue (ischemic skin flap [2]; total 12 mg/kg/day): 9.4±4.2% | percentage of unperfused tissue (ischemic skin flap [2]; total 24 mg/kg/day): 4.7±2.6% | percentage of unperfused tissue (ischemic skin flap [2]; total 48 mg/kg/day): 1.4±0.9% | percentage of overall flap perfusion (ischemic skin flap [2]; intraperitoneal alone 48 mg/kg/day): 7.2±3.8% | percentage of overall flap perfusion (ischemic skin flap [2]; topical alone 48 mg/kg/day): 6.9±1.3% | mean hemoglobin ([3]; control 15.1±0.5 g/dl, p=0.3): 14.2 ± 1.0 g/dL | mean white blood cell count ([3]; control 18.2±5.6×10^3/p1, p=0.08): 10.4±1.6 ×10^3/p1 | hematocrit ([3]; control 43.3±1.1 percent, p=0.2): 40.8±2.6% | platelet count ([3]; control 1446±218×10^9/liter, p=0.8): 1510±247 ×10^9/liter | gross necropsy findings ([4]; after 14 total days of treatment): no evidence of cardiovascular changes, splenomegaly, or polycythemia; also recorded: no macroscopic organ changes were observed | weights versus control animals ([4]; experimental day 1 or day 14, all doses): no differences | wound infections, dehiscence, behavioral changes in feeding or activity ([4]; rat, in vivo): No wound infections, dehiscence, or behavioral changes in feeding or activity were observed | tissue VEGF concentration (VEGF): 37.1 ± 3.4 pg/mL | number of HIF-1α-stained nuclei per high-power field (HIF-1α): 21.0±2.7

O=C(O)CNC(=O)c1ncc(-c2cccc(Cl)c2)cc1O [Vadadustat]
most common adverse effect in clinical trials [5]: hypertension resulting from polycythemia

O=c1c(-n2ccnn2)c[nH]n1-c1cc(N2CCOCC2)ncn1 [Molidastat]
most common adverse effect in clinical trials [5]: hypertension resulting from polycythemia
